Results: the supplement of paper PMC4862054

Legend:
Settings in all cases: incubation time: 72 h
SK-BR-3 [1] = assay: normalised viability (% of control), CellTiter-Blue; higher = more viable cells (100 = DMSO, 0 = benzethonium chloride kill control)
Procedure, shortened: (§1)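 Vehicle (100) and a positive kill control (0) anchored the normalisation of each plate, and Z'-factor was used for quality control. Breast cancer cell lines in 20 µl suspension were incubated 72 h over compound in 5 µl medium in 384-well plates, followed by CellTiter-Blue at 560/590 nm. The value is normalised viability at a single listed concentration of the series.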

Hs578T [2] = assay: as above
Procedure, shortened: as §1

BT-474 [3] = assay: as above
Procedure, shortened: as §1

MDA-MB-468 [4] = assay: as above
Procedure, shortened: as §1

CAL-120 [5] = assay: as above
Procedure, shortened: as §1

MDA-MB-436 [6] = assay: as above
Procedure, shortened: as §1

CAL-148 [7] = assay: as above
Procedure, shortened: as §1

CAL-85-1 [8] = assay: as above
Procedure, shortened: as §1

HCC1599 [9] = assay: as above
Procedure, shortened: as §1

HCC1143 [10] = assay: as above
Procedure, shortened: as §1

MDA-MB-231 [11] = assay: as above
Procedure, shortened: as §1

BT-549 [12] = assay: as above
Procedure, shortened: as §1

HDQ-P1 [13] = assay: as above
Procedure, shortened: as §1

MFM-223 [14] = assay: as above
Procedure, shortened: as §1

CAL-51 [15] = assay: as above
Procedure, shortened: as §1

HCC1937 [16] = assay: as above
Procedure, shortened: as §1

DU-4475 [17] = assay: as above
Procedure, shortened: as §1

MDA-MB-453 [18] = assay: as above
Procedure, shortened: as §1

SK-BR-3 [19] = assay: normalised response (% of control), CellTiter-Glo; higher = more viable cells (100 = DMSO, 0 = benzethonium chloride kill control)
Procedure, shortened: (§2)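 Every value is a normalised signal taken at one concentration of a dilution series. Compound was placed in 384-well plates at 5 concentrations in 10-fold steps over a compound-specific 10,000-fold range, and 20 µl of breast cancer cell suspension was seeded onto it. After 72 h, CellTox Green fluorescence (485/520 nm) was measured first and CellTiter-Glo luminescence second, following 10 min at room temperature. Each plate was scaled to 0.1 % DMSO (100) and a positive kill control (0).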

Hs578T [20] = assay: as above
Procedure, shortened: as §2

BT-474 [21] = assay: as above
Procedure, shortened: as §2

MDA-MB-468 [22] = assay: as above
Procedure, shortened: as §2

CAL-120 [23] = assay: as above
Procedure, shortened: as §2

MDA-MB-436 [24] = assay: as above
Procedure, shortened: as §2

CAL-148 [25] = assay: as above
Procedure, shortened: as §2

CAL-85-1 [26] = assay: as above
Procedure, shortened: as §2

HCC1599 [27] = assay: as above
Procedure, shortened: as §2

HCC1143 [28] = assay: as above
Procedure, shortened: as §2

MDA-MB-231 [29] = assay: as above
Procedure, shortened: as §2

BT-549 [30] = assay: as above
Procedure, shortened: as §2

HDQ-P1 [31] = assay: as above
Procedure, shortened: as §2

MCF-10A = assay: as above
Procedure, shortened: as §2

MFM-223 [32] = assay: as above
Procedure, shortened: as §2

CAL-51 [33] = assay: as above
Procedure, shortened: as §2

HCC1937 [34] = assay: as above
Procedure, shortened: as §2

DU-4475 [35] = assay: as above
Procedure, shortened: as §2

MDA-MB-453 [36] = assay: as above
Procedure, shortened: as §2

| Compound | normalised viability (SK-BR-3 [1]) [%] | normalised viability (Hs578T [2]) [%] | normalised viability (BT-474 [3]) [%] | normalised viability (MDA-MB-468 [4]) [%] | normalised viability (CAL-120 [5]) [%] | normalised viability (MDA-MB-436 [6]) [%] | normalised viability (CAL-148 [7]) [%] | normalised viability (CAL-85-1 [8]) [%] | normalised viability (HCC1599 [9]) [%] | normalised viability (HCC1143 [10]) [%] | normalised viability (MDA-MB-231 [11]) [%] | normalised viability (BT-549 [12]) [%] | normalised viability (HDQ-P1 [13]) [%] | normalised viability (MFM-223 [14]) [%] | normalised viability (CAL-51 [15]) [%] | normalised viability (HCC1937 [16]) [%] | normalised viability (DU-4475 [17]) [%] | normalised viability (MDA-MB-453 [18]) [%] | normalised response (SK-BR-3 [19]) [%] | normalised response (Hs578T [20]) [%] | normalised response (BT-474 [21]) [%] | normalised response (MDA-MB-468 [22]) [%] | normalised response (CAL-120 [23]) [%] | normalised response (MDA-MB-436 [24]) [%] | normalised response (CAL-148 [25]) [%] | normalised response (CAL-85-1 [26]) [%] | normalised response (HCC1599 [27]) [%] | normalised response (HCC1143 [28]) [%] | normalised response (MDA-MB-231 [29]) [%] | normalised response (BT-549 [30]) [%] | normalised response (HDQ-P1 [31]) [%] | normalised response (MCF-10A) [%] | normalised response (MFM-223 [32]) [%] | normalised response (CAL-51 [33]) [%] | normalised response (HCC1937 [34]) [%] | normalised response (DU-4475 [35]) [%] | normalised response (MDA-MB-453 [36]) [%] |
| --- | --- | --- | --- | --- | --- | --- | --- | --- | --- | --- | --- | --- | --- | --- | --- | --- | --- | --- | --- | --- | --- | --- | --- | --- | --- | --- | --- | --- | --- | --- | --- | --- | --- | --- | --- | --- | --- |
| O=NN(CCCl)C(=O)NC1CCCCC1 [Lomustine] (1 nM) | 93.6 | 100 | 88 | 100 | 91.6 | 109 | 107 | 98.8 | 109 | 95.2 | 97.3 | 107 | 110 | 83.4 | 108 | 86.3 | 102 | 114 | 104 | 106 | 101 | 99.3 | 99.1 | 98.2 | 94.4 | 97.6 | 105 | 105 | 97.5 | 94.2 | 97.2 | 107 | 97.5 | 91.6 | 94.9 | 93.9 | 108 |
| O=C(O)CC[C@H]1CC[C@@](c2cc(F)ccc2F)(S(=O)(=O)c2ccc(Cl)cc2)CC1 [MK-0752] (0.1 nM) | 94.4 | 106 | 119 | 96.7 | 88.8 | 109 | 106 | 100 | 103 | 99.7 | 99.2 | 117 | 99.9 | 102 | 98.2 | 84.8 | 106 | 117 | 111 | 98.7 | 101 | 102 | 95.5 | 101 | 101 | 99.5 | 79.3 | 102 | 104 | 103 | 97.8 | 116 | 106 | 68.8 | 100 | 97.5 | 116 |
| NC1(c2ccc(-c3nc4ccn5c(=O)[nH]nc5c4cc3-c3ccccc3)cc2)CCC1 [MK-2206] (0.1 nM) | 107 | 107 | 115 | 111 | 106 | 108 | 106 | 108 | 94.9 | 118 | 106 | 114 | 113 | 100 | 99.9 | 129 | 118 | 105 | 110 | 97.2 | 101 | 103 | 112 | 98.3 | 110 | 98.7 | 87.8 | 102 | 106 | 99.5 | 103 | 107 | 112 | 87.9 | 100 | 101 | 98.9 |
| NC(=O)c1cccc2cn(-c3ccc([C@@H]4CCCNC4)cc3)nc12 [MK-4827] (1 nM) | 95.5 | 94.2 | 121 | 91.7 | 90.2 | 80.8 | 105 | 82.1 | 97.1 | 92.1 | 96 | 112 | 85.9 | 92.2 | 108 | 97.3 | 102 | 97.8 | 112 | 103 | 113 | 104 | 101 | 96.9 | 115 | 102 | 110 | 105 | 101 | 102 | 100 | 102 | 101 | 99.9 | 102 | 98.1 | 99.3 |
